Data on four compounds can be found in patent publication US20240390451A1, “MODIFIED TRIPEPTIDES FOR USE IN THE TREATMENT OF A NON-ENVELOPED VIRUS INFECTION” (PHARMA HOLDINGS AS, priority 2021, published 2024).

Series [1] deals with Human Rhinovirus 14, strain 1059. The experiment in a line: Antiviral (virucidal) activity of 1% LTX-109 against Human Rhinovirus 14: 1 hour incubation, filtration, TCID50 on HeLaM cells. To be noted: for TCID50/ml ± SEM: average virus titre recovered, contact time 1 hour at RT, 1% LTX-109 (triplicate) or 2.5% glutaraldehyde in PBS (single replicate); for Log decrease: decrease in infectivity as compared to the PBS control; for Log decrease / % Reduction: contact time 1 hour, 1% LTX-109 or 2.5% glutaraldehyde; for % Reduction: reduction in Rhinovirus 14 infectivity as compared to the PBS control. The class given is cell-based. The protocol:
The virus used was from ATCC: Human Rhinovirus 14, strain 1059 (ATCC VR-284, lot number 70049530).
To test whether 1% LTX-109 has virucidal activity against Human Rhinovirus 14, 4×10^7 infectious units of Human Rhinovirus 14 in 40 μl were incubated with four volumes (160 μl) of 1% LTX-109 or a PBS negative control. As a positive control, a buffer containing 2.5% glutaraldehyde in PBS was tested in parallel. Both LTX-109 and negative control were tested in triplicates. The positive control was tested in a single replicate.
After 1 hour at room temperature (RT), the incubation was stopped by adding an excess of cold assay media (5 ml), and the formulation was physically separated from the virus through a filter (Sartorius VivaSpin 6, 100,000 MWCO, PES) to reduce cytotoxicity on the assay cells. The assay media was DMEM (Gibco 10566016) supplemented with 2% FBS (Gibco 10500064), 20 mM HEPES (Gibco 15630056) and 1× PenStrep (Gibco 15070063).
Concentrated virus was re-suspended in 1 ml of assay media and infectious virus was quantified through a serial dilution (10^−1 to 10^−8) on a monolayer of HeLaM cells plated the day before at 8,000 cells/100 μl/well. […] Specifically, on a 96 well plate, 225 μl of media were placed in each well of 4 columns (32 wells in total). In the 4 wells of the top row (row A), 25 μl of re-suspended virus was added and mixed. With a multichannel pipette, 25 μl of media was then taken from the 4 wells in row A to the next 4 wells in row B, and then from row B to row C, and so on until row H, creating a serial dilution (10^−1 to 10^−8). 200 μl from each well was then added to separate wells containing a monolayer of HeLa M cells. Appropriate controls were also performed.

Series [2] concerns HeLaM cells. The experiment in a line: Parallel test without virus: residual cytotoxic effect of LTX-109 on the assay cells (Example 4). To be noted: dilution at which cytotoxicity on HeLaM cells was observed, after filtration and re-suspension, 1% LTX-109 or 2.5% glutaraldehyde in PBS. The protocol: A parallel test where the same procedure was carried out in the absence of virus was included to determine any residual cytotoxic effect of LTX-109 on the assay cells.

For series [3], the system named is Rhinovirus 60, 2268-CV37. Nature of the series: Antiviral activity of 1% LTX-109 against Rhinovirus: 1 hour incubation, filtration, TCID50 endpoint dilution on HeLa cells. The series is classed as cell-based, Human Rhinovirus 60. To be noted: for TCID50/ml ± SEM: average virus titre recovered after 1 hour incubation, 1% LTX-109 (w/v) in PBS or 0.25% SDS, triplicate; for Log decrease: decrease in infectivity as compared to the PBS control; for Log decrease / Percentage: 1 hour; for Log decrease / Log / Percentage: 1% LTX-109 or 0.25% SDS; for Log: log of recovered virus titre after 1 hour incubation; for Percentage: reduction in infectivity as compared to the PBS control. The protocol: (§1) The Rhinovirus used was from BEI Resources: Rhinovirus 60, 2268-CV37 (Catalogue No. NR-51447).
To test whether 1% LTX-109 (w/v) has antiviral activity against Rhinovirus, 2.24×10^5 infectious units of Rhinovirus (40 μl) were incubated with four volumes of 1% LTX-109 dissolved in PBS (160 μl), alongside a PBS (Phosphate-buffered saline) control and a 0.25% SDS (Sodium dodecyl sulphate) positive control. The treatments were performed in triplicate.
After 1 hour, the incubation was stopped by adding an excess of media, and the liquid was filtered through a filter (Sartorius VivaSpin 6) to separate the virus in order to reduce cytotoxicity on the assay cells. The assay media was DMEM (Gibco 61965-026) supplemented with 2% FBS (Gibco 10500-064), 20 mM Hepes (Gibco 15630-056) and 1×p/s (Gibco 15070063).
(§2) Appropriate controls were also performed.

Series [4] relates to HeLa cells. To be noted: dilution at which cytotoxicity on HeLa cells was observed, without virus, after filtration, 1% LTX-109 (w/v) in PBS or 0.25% SDS.
Procedure: Infectious virus was quantified through a serial dilution of the filtrate (a series of ten-fold dilutions) on monolayers of HeLa cells in microtitre plates (HeLa cells are human cells capable of displaying a cytopathic effect (CPE) upon viral infection). For each dilution of the virus in the dilution series, eight wells of the microtitre plate were tested (i.e. each dilution was applied to eight separate wells, each well containing a HeLa cell monolayer). Appropriate controls were also performed. […] The TCID50 (TCID50/ml) assay (Tissue Culture Infectious Dose 50 assay) is a type of endpoint dilution assay that is well known in the art and routinely used to quantitatively measure virus titres. TCID50/ml provides a measure of infectious units of virus/ml. “/ml” refers to /ml of the starting solution (i.e. neat/undiluted solution) mentioned above. A parallel test where the same procedure was carried out in the absence of virus was included to determine any residual cytotoxic effect of the formulation on the assay cells.
Series [5] deals with HeLaM cells. The settings on record: dilution at which cytotoxicity on HeLaM cells was observed, without virus, after filtration, 1% LTX-7 (w/v) in PBS or 0.25% SDS.
Procedure: A parallel test where the same procedure was carried out in the absence of virus was included to determine any residual cytotoxic effect of LTX-7 on the assay cells.
The subject of series [6] is HeLa cells. To be noted: dilution at which cytotoxicity on HeLa cells was observed, without virus, after dilution, 3% LTX-109 (w/v) in PBS or 0.25% SDS.
Procedure: A parallel test where the same procedure was carried out in the absence of virus was included to determine any residual cytotoxic effect of the formulation on the assay cells.
Series [7] concerns Rhinovirus (HRV-A60), Strain: 2268-CV37. Nature of the series: Antiviral activity of LTX-7 against Rhinovirus: 1 hour incubation, filtration, TCID50 endpoint dilution on HeLaM cells. To be noted: for % Reduction: as compared to the PBS control; for % Reduction / Log decrease / Rounded %: contact time 1 hour, 1% LTX-7 or 0.25% SDS; for TCID50/ml ± SEM: average virus titre recovered, contact time 1 hour at RT, 1% LTX-7 (w/v) in PBS or 0.25% SDS in PBS; for Log decrease: decrease in infectivity as compared to the PBS control; for Rounded %: rounded % reduction as compared to the PBS control. The class given is cell-based, Human Rhinovirus 60. The protocol:
The Rhinovirus used was from BEI Resources: Rhinovirus (HRV-A60), Strain: 2268-CV37 (BEI Resources Catalogue Number NR-51447).
To test whether LTX-7 has antiviral activity against Rhinovirus, 5×10^5 infectious units of Rhinovirus (40 μl) were incubated with four volumes of 1% LTX-7 (w/v) dissolved in PBS (160 μl) or a PBS (Phosphate-buffered saline) negative control. As a positive control, a buffer containing 0.25% SDS (Sodium dodecyl sulphate) in PBS was tested in parallel. Each sample and the PBS control were tested in triplicates.
After 1 hour at room temperature (RT), the incubation was stopped by adding an excess of cold assay media (5 ml), and the formulation was physically separated from the virus through a filter (Sartorius VivaSpin 6, 100,000 MWCO, PES (Sartorius, VS0642)) to reduce cytotoxicity on the assay cells. The assay media was DMEM (Gibco 61965-026) supplemented with 2% FBS (Gibco 10500-064), 20 mM Hepes (Gibco 15630-056) and 1× p/s (Gibco 15070063).
The starting solution for the serial dilution (i.e. the neat (or undiluted) solution or 10^0 solution) was obtained by re-suspending the virus that was separated via the filtration step in 1 ml of assay media. […] Appropriate controls were also performed.

The test system of series [8] is Rhinovirus 60, 2268-CV37. The experiment in a line: Antiviral activity of 3% LTX-109 against Rhinovirus: 1 hour incubation, dilution in media, TCID50 endpoint dilution on HeLa cells. The series is classed as cell-based, Human Rhinovirus 60. To be noted: for Log decrease: decrease in infectivity as compared to the PBS control; for Log decrease / Percentage: 1 hour; for Log decrease / Log / Percentage: 3% LTX-109 or 0.25% SDS; for Log: log of recovered virus titre after 1 hour incubation; for Percentage: reduction in infectivity as compared to the PBS control. The protocol:
as §1
To test whether 3% LTX-109 (w/v) has antiviral activity against Rhinovirus, 9×10^5 infectious units of Rhinovirus (40 μl) were incubated with four volumes of 3% LTX-109 dissolved in PBS (160 μl), alongside a PBS (Phosphate-buffered saline) control and a 0.25% SDS (Sodium dodecyl sulphate) positive control. The treatments were performed in triplicate.
After 1 hour, the incubation was stopped by adding 50 μl of mixture to 5 ml of media. The assay media was DMEM (Gibco 61965-026) supplemented with 2% FBS (Gibco 10500-064), 20 mM Hepes (Gibco 15630-056) and 1× p/s (Gibco 15070063).
as §2

The mark [9] stands for this setting: listed as POSITIVE CONTROL (SDS), sulphate.

“And” between values parts separate entries of the source, which are not always exact repeats. Equal entries are not always repeated. Where two headings read alike, the source gives them in different places.

As for `O=CCCCC=O` [Positive Control, glutaraldehyde, reference compound], in series [1], the “TCID50/ml ± SEM” value is reported as 3.75E+01 TCID50/ml, the “Log decrease” value was found to be 5.74 logs and the “% Reduction” value worked out at 99.9998%. The “% Reduction” value in series [1] (listed as 2.5% glutaraldehyde in PBS) is about 99.9%. In addition, in the series with HeLaM cells [2], the Cytotoxicity entry is given as “Neat”.

Consider `CCCCCCCCCCCCOS(=O)(=O)[O-].[Na+]` [SDS, Sodium dodecyl sulphate, reference compound], for which the “TCID50/ml ± SEM” value with Rhinovirus 60, 2268-CV37 [3] is 1.00E+02 TCID50/ml; in series [7] (setting [9]), 1.58E+01 (SEM ND) TCID50/ml; in series [7] (sulphate), 1.58E+01 TCID50/ml; in the series on Rhinovirus 60, 2268-CV37 [8] (average virus titre recovered after 1 hour incubation, 3% LTX-109 (w/v) in PBS or 0.25% SDS, triplicate), 1.58E+01 TCID50/ml. Also, the Log decrease in the series on Rhinovirus 60, 2268-CV37 [3] stood at 3.6 logs; in series [7] it was 3.67 logs; with Rhinovirus 60, 2268-CV37 [8] it was 3.0 logs. The Log with Rhinovirus 60, 2268-CV37 [3] is recorded as 2.0; in the series on Rhinovirus 60, 2268-CV37 [8] it was 1.2. For the same compound, the Percentage with Rhinovirus 60, 2268-CV37 [3] turned out to be 99.98%; in the series on Rhinovirus 60, 2268-CV37 [8] it was 99.91%. Besides, the Cytotoxicity result in the series with HeLa cells [4] is reported as “Neat”; with HeLaM cells [5] (setting [9]) it was “Neat”; with HeLaM cells [5] (sulphate), “observed (only) with the neat application”; in the series with HeLa cells [6], “Neat”. Besides, the “% Reduction” value in series [7] is recorded as 99.983%. For the same compound, the Rounded % in series [7] (setting [9]) is reported as 99.9%; in series [7] (sulphate) it was about 99.9%.

For the compound `CC(C)(C)c1cc(C(C)(C)C)c2[nH]c(C(C)(C)C)c(CC(NC(=O)C(N)CCCNC(=N)N)C(=O)NC(CCCNC(=N)N)C(=O)NCCc3ccccc3)c2c1` (stereo not drawn) [LTX-109], the “TCID50/ml ± SEM” value was 4.8E+03 TCID50/ml and 4.80E+03 ± 8.21E+02 TCID50/ml with Rhinovirus 60, 2268-CV37 [3]; 1.80E+06 TCID50/ml in series [1]; 1.80E+06 (±3.08 ± 05) TCID50/ml in series [1] (listed as 1% LTX-109). Also, the Log decrease with Rhinovirus 60, 2268-CV37 [3] is 1.9 logs; in series [1], 1.05 logs; with Rhinovirus 60, 2268-CV37 [8] it was 1.9 logs. Moreover, the Log is listed as 3.7 with Rhinovirus 60, 2268-CV37 [3] and 2.3 in the series with Rhinovirus 60, 2268-CV37 [8]. For the same compound, the Percentage in the series on Rhinovirus 60, 2268-CV37 [3] amounted to 98.89%; in the series on Rhinovirus 60, 2268-CV37 [8] it was 98.87%. In addition, the “% Reduction” value in series [1] is 91.2%; in series [1] (listed as 1% LTX-109), 91.2% and 91.17%. Moreover, the Cytotoxicity is 10^−1 with HeLaM cells [2]; “only cytotoxic before any serial dilutions are performed” in the series with HeLa cells [4]; “observed (only) with the neat application and Neat” in the series with HeLa cells [4] (listed as 1% LTX-109); “only cytotoxic before any serial dilutions are performed” in the series on HeLa cells [6]; “Neat” in the series on HeLa cells [6] (listed as 3% LTX-109); “observed (only) with the neat application” with HeLa cells [6] (listed as 3% formulation).

Regarding `N=C(N)NCCCC(N)C(=O)NC(Cc1ccc(-c2ccc3ccccc3c2)cc1)C(=O)NC(CCCNC(=N)N)C(=O)NCCc1ccccc1` (stereo not drawn) [LTX-7, Arg-Phe(4-(2-Naphthyl))-Arg-NH—CH2—CH2-Ph], in the series with HeLaM cells [5], the Cytotoxicity result was “observed (only) with the neat application and only cytotoxic before any serial dilutions are performed and Neat”. In series [7], the “% Reduction” value worked out at 95.791%; the “TCID50/ml ± SEM” value is 3.86E+03 TCID50/ml and 3.86E+03 ± 1.14E+03 TCID50/ml; the Log decrease is 1.33 logs.
